According to patent publication US11633447B2, “Pharmaceutical composition and functional health food for preventing or treating macular degeneration” (LEMONEX INC., priority 2018, dated 2023):

Key:
ARPE-19 cells = assay: Retinal pigment epithelial cell protection against blue light-induced photooxidation after A2E accumulation (cell counting kit-8 viability); format: cell-based; details: 17.04 μg/mL (30 μM) for 24 hours; 20 μM A2E; blue light 4,000 lux 10 minutes; difference control vs blue light group set to 100%
Procedure: Since it is already known that photooxidation occurs when retinal pigment epithelial cells accumulated with A2E are irradiated with blue light, it was confirmed whether cytotoxicity derived by irradiation with blue light after 20 μM A2E accumulation in ARPE-19 cells could be suppressed using the banaba leaf extract, guava leaf extract, and the mixture thereof. Specifically, all ARPE-19 cells were treated with A2E at a concentration of 20 μM for 24 hours, and then treated with 100 μg/mL of the banaba leaf extract, the guava leaf extract, and the mixture thereof in Example 1, respectively, or 17.04 μg/mL (30 μM) of lutein for 24 hours. Thereafter, the treated cells were irradiated with blue light (4,000 lux) for 10 minutes. 24 hours after blue light irradiation, cell viability of ARPE-19 cells was measured by a cell counting kit-8 (Dojindo Labs, Japan), and the percentage of cell viability of each treatment group was compared to the control not irradiated with blue light. Lutein was used as a positive control. […] By setting a difference in cell viability between the control not irradiated with blue light and the blue light irradiated group to be 100%, cell protective effects of each extract were estimated by calculating cell protective effects through a difference in cell viability between the blue light irradiated group and the treated group. […]

Balb-c mice = assay: Blue light-induced macular degeneration animal model, thickness of outer nuclear layer (ONL) by H&E staining; format: in vivo; details: oral, once daily, 50 mg/kg, blue light 10,000 lux 1 hour per day for 14 days
Procedure: Balb-c mice (5 weeks old, males) were acclimated and bred for 2 days, and then orally administered with each of the banaba leaf extract, the guava leaf extract, the mixture thereof or lutein (50 mg/kg) once daily for 7 days. Then, after 24 hours of dark acclimatization, each of the extracts and the mixture and lutein was orally administered for 14 days, and 30 minutes later, followed by blue light irradiation at 10,000 lux for 1 hour per day. 24 hours after the blue light irradiation and the end of administration of the extract, the mice were sacrificed to an extract eyeball, and then, retinal cell protective effects were determined through tissue staining (FIG. 4).
The extracted eyeball tissue was fixed with a neutral buffered formalin solution. The fixed eyeball was washed with running water and was subjected to a dehydration process using alcohol. Thereafter, a clearing process was performed using Xylene, and proper rigidity was given to the tissue using paraffin. The eyeball was made into a predetermined shape of paraffin block, and then cut to 4 μm thickness. The cut eyeball was subjected to hematoxylin & eosin (H & E) staining. […] Then, a thickness of the outer nuclear layer (ONL) of the visual cell was measured by Image J software (National Institute of Health, […], Md., USA)), followed by counting the number of nuclei. […]

Q: How did the “cell protective effect (cell viability)” value (ARPE-19 cells) turn out when `CC1=C[C@H](O)CC(C)(C)[C@H]1/C=C/C(C)=C/C=C/C(C)=C/C=C/C=C(C)/C=C/C=C(C)/C=C/C1=C(C)C[C@@H](O)CC1(C)C` [lutein] was run?
A: The value was 48.4%.

Q: And the “ONL thickness change in administered groups” value (Balb-c mice)?
A: Its value is “significantly increased ONL thickness”.

Q: What about the “ONL protective effect (ONL thickness)” value (Balb-c mice; difference control vs blue light group set to 100%) of the same molecule?
A: Its value is 28.2%.
